In patent US9115151B2, “Substituted 2,10-dihydro-9-oxa-1,2,4A-triazaphenanthren-3-ones and uses thereof” (AbbVie Inc., priority 2012, dated 2015):
Structures can show the parent of a compound that is named as a salt.

Assays:
PKCα = molecular target: T1, PKCα (Homo sapiens, UniProt P17252); assay: In vitro enzyme assay (time-resolved fluorescence kinase assay), PKCα, 100 μM ATP; assay type: biochemical; conditions: 100 μM ATP; read-out: PKCα enzyme IC50
T1 construct: His6; purchased Millipore; host or cells: baculovirus in Sf21 cells
Procedure, shortened: (§1)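 Read-out was time-resolved fluorescence, corrected for a minus-enzyme blank and converted to percent activity relative to enzyme without drug. They were stopped with EDTA.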

PKCθ = molecular target: T2, PKCθ (Homo sapiens, UniProt Q04759); assay: In vitro enzyme assay (time-resolved fluorescence kinase assay), PKCθ, 100 μM ATP; assay type: biochemical
T2 construct: His6; purchased Millipore; host or cells: baculovirus in Sf21 cells
T2 sequence (Q04759 whole entry): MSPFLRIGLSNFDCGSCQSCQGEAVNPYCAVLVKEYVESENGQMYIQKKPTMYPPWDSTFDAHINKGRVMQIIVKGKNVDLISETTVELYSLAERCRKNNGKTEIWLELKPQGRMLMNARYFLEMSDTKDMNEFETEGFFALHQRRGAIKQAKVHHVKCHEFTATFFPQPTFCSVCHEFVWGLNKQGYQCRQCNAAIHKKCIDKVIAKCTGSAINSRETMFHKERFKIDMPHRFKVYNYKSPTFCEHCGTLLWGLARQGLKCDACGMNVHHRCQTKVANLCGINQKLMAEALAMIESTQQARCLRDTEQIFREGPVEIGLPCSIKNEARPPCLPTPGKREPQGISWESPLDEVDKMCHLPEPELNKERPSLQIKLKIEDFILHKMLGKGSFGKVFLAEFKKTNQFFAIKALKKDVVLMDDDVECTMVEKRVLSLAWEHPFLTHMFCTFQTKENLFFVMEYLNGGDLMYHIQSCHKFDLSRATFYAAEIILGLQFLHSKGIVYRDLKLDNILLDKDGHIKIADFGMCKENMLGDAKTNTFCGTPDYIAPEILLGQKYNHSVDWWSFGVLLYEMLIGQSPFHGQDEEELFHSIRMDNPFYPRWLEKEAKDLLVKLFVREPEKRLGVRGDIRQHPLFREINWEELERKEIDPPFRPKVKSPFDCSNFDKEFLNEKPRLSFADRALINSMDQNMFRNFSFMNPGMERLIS
Procedure, shortened: as §1

[1] = tested on: CD3/CD28 induced IL-2 in human T-Blasts; assay: T-Blasts CD3/CD28 induced IL-2 assay; assay type: cell-based; conditions: read-out: CD3/CD28-stimulated IL2 in T-blasts EC50
Procedure, shortened: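 IL-2 in supernatants read after 24 h 37° C stimulation of human PHA T-blasts (2×10^5/well) with anti-CD3/anti-CD28 at 5 μg/mL final. Duplicate eight-point, 1/3-step compound series added 30 min before stimulus; residual cells checked by MTT for toxicity.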

SMILES | IC50 (PKCα) [µM] | IC50 (PKCθ) [µM] | EC50 [1] [µM]
C[C@@H]1C(=O)NN=C2COc3cc(-c4cccc(F)c4)c(NC4CNC4)cc3N21 [Example 6] | 1 to 10 | < 0.25 | < 0.25
C[C@@H]1C(=O)NN=C2COc3cc(-c4ccccc4CO)c(N(C)C4(C)CN(C)C4)cc3N21 [Example 176] | 0.25 to 1 | < 0.25 | < 0.25
Cc1cc(-c2cc3c(cc2NC2CNC2)N2C(=NNC(=O)C2C)CO3)ccc1F (racemic) [Example 32] | 1 to 10 | < 0.25 | 0.25 to 1
CC(C)c1cc2c(cc1C1CCNCC1)N1C(=NNC(=O)C1C)CO2 (stereo not drawn) [Example 76, 7-Isopropyl-4-methyl-6-piperidin-4-yl-2,10-dihydro-9-oxa-1,2,4a-triaza-phenanthren-3-one trifluoroacetic acid] | 1 to 10 | 0.25 to 1 | 0.25 to 1
CC1C(=O)NN=C2COc3cc(-c4ccccc4Cl)c(NC4CNC4)cc3N21 (racemic) [Example 44] | 1 to 10 | < 0.25 | < 0.25
CC1C(=O)NN=C2COc3cc4ccn(C5CN(C)C5)c4cc3N21 (stereo not drawn) [compound 161] | 1 to 10 | < 0.25 | 0.25 to 1
CC1C(=O)NN=C2COc3cc(C4CC4)c(NC4CNC4)cc3N21 (racemic) [Example 49] | 1 to 10 | < 0.25 | < 0.25
Cc1cc2c(cc1NC1CNC1)N1C(=NNC(=O)[C@H]1C)CO2 (single isomer, unassigned) [Example 54-1, trifluoroacetic acid] | 1 to 10 | < 0.25 | 0.25 to 1
CC1C(=O)NN=C2COc3cc(C(F)(F)F)c(C4CCNCC4)cc3N21 (stereo not drawn) [Example 120, 1-Methyl-9-(piperidin-4-yl)-8-(trifluoromethyl)-3,5-dihydrobenzo[5,6][1,4]oxazino[3,4-c][1,2,4]triazin-2(1H)-one trifluoroacetic acid] | 1 to 10 | < 0.25 | 0.25 to 1
CC[C@@H]1CN(C)CCN1c1cc2c(cc1-c1ccccc1F)OCC1=NNC(=O)[C@@H](C)N12 [Example 233] | 0.25 to 1 | < 0.25 | < 0.25
C[C@@H]1C(=O)NN=C2COc3cc4ccn([C@@]5(C)CCNC5)c4cc3N21 [Example 163, (R)-1-Methyl-10-((S)-3-methyl-pyrrolidin-3-yl)-3,5-dihydro-10H-6-oxa-3,4,10,11b-tetraaza-cyclopenta[b]phenanthren-2-one] | < 0.25 | < 0.25 | < 0.25
C[C@@H]1C(=O)NN=C2COc3ccc([C@@H]4CCN[C@H](Cc5ccccc5)C4)cc3N21 (single isomer, unassigned) [Example 109-2, trifluoroacetic acid] | 1 to 10 | < 0.25 | < 0.25
CC1C(=O)NN=C2COc3cc(-c4cccc5ccccc45)c(NC4CNC4)cc3N21 (racemic) [Example 52] | 1 to 10 | < 0.25 | 0.25 to 1
C[C@@H]1C(=O)NN=C2COc3cc(-c4ccccc4F)c(N4[C@@H]5CC[C@H]4CN(C)C5)cc3N21 [Example 235] | 0.25 to 1 | < 0.25 | 0.25 to 1
C[C@@H]1C(=O)NN=C2COc3cc(-c4ccccc4F)c([C@@H](C)C4(C)CNC4)cc3N21 [Example 146, (R)-7-(2-Fluoro-phenyl)-4-methyl-6-[(R)-1-(3-methyl-azetidin-3-yl)-ethyl]-2,10-dihydro-9-oxa-1,2,4a-triaza-phenanthren-3-one] | < 0.25 | < 0.25 | < 0.25
CCc1cn(C2(C)CNC2)c2cc3c(cc12)OCC1=NNC(=O)[C@@H](C)N13 [Example 156, (R)-8-Ethyl-1-methyl-10-(3-methyl-azetidin-3-yl)-3,5-dihydro-10H-6-oxa-3,4,10,11b-tetraaza-cyclopenta[b]phenanthren-2-one hydrochloride] | 1 to 10 | < 0.25 | 0.25 to 1
C[C@@H]1C(=O)NN=C2COc3cc(-c4ccccc4C(C)(C)O)c([C@@H](C)C4(C)CN(C)C4)cc3N21 [Example 137, (R)-6-[(R)-1-(1,3-Dimethyl-azetidin-3-yl)-ethyl]-7-[2-(1-hydroxy-1-methyl-ethyl)-phenyl]-4-methyl-2,10-dihydro-9-oxa-1,2,4a-triaza-phenanthren-3-one] | 1 to 10 | < 0.25 | 0.25 to 1
CC1C(=O)NN=C2COc3cc(-c4cccc(F)c4)c(N(C)C4(C)CN(C)C4)cc3N21 (stereo not drawn) [Example 169] | 0.25 to 1 | < 0.25 | < 0.25

Second part, the molecule after the results:

IC50 (PKCα) [µM] | IC50 (PKCθ) [µM] | EC50 [1] [µM] | SMILES
1 to 10 | 0.25 to 1 | 1 to 10 | C[C@H]1C(=O)NN=C2COc3cc(F)c(NC4CNC4)cc3N21 (single isomer, unassigned) [Example 56-1, trifluoroacetic acid]
1 to 10 | < 0.25 | < 0.25 | C[C@@H]1C(=O)NN=C2COc3cc(F)c(OC4CNC4)cc3N21 [Example 124, (R)-9-(Azetidin-3-yloxy)-8-fluoro-1-methyl-3,5-dihydrobenzo[5,6][1,4]oxazino[3,4-c][1,2,4]triazin-2(1H)-one trifluoroacetic acid]
1 to 10 | < 0.25 | < 0.25 | CC1C(=O)NN=C2COc3cc(-c4ccc(Cl)cc4)c(NC4CNC4)cc3N21 (racemic) [Example 45]
1 to 10 | < 0.25 | < 0.25 | C[C@@H]1C(=O)NN=C2COc3cc(-c4ccccc4Cl)c(C4CCNCC4)cc3N21 [Example 210]
0.25 to 1 | < 0.25 | < 0.25 | C[C@@H]1CN(C)CC[C@@H]1c1cc2c(cc1-c1ccccc1CO)OCC1=NNC(=O)[C@@H](C)N12 [Example 205]
1 to 10 | < 0.25 | < 0.25 | CC1C(=O)NN=C2COc3cc(-c4ccccc4OC(F)(F)F)c(NC4CNC4)cc3N21 (racemic) [Example 27]
1 to 10 | < 0.25 | < 0.25 | CC1C(=O)NN=C2COc3ccc(NC4(C(C)C)CNC4)cc3N21 (stereo not drawn) [Example 113, 9-((3-Isopropylazetidin-3-yl)amino)-1-methyl-3,5-dihydrobenzo[5,6][1,4]oxazino[3,4-c][1,2,4]triazin-2(1H)-one trifluoroacetic acid]
1 to 10 | < 0.25 | < 0.25 | C[C@@H]1C(=O)NN=C2COc3cc(-c4cccc5ccccc45)c(NC4CNC4)cc3N21 [Example 10]
1 to 10 | < 0.25 | 0.25 to 1 | CC1C(=O)NN=C2COc3ccc(N4CCCC4CN)cc3N21 (stereo not drawn) [Example 117, 6-(2-Aminomethyl-pyrrolidin-1-yl)-4-methyl-2,10-dihydro-9-oxa-1,2,4a-triaza-phenanthren-3-one trifluoroacetic acid]
1 to 10 | < 0.25 | 0.25 to 1 | CC[C@H]1CN(C)CCN1c1cc2c(cc1-c1ccccc1F)OCC1=NNC(=O)[C@@H](C)N12 [Example 234]
1 to 10 | < 0.25 | < 0.25 | CC1C(=O)NN=C2COc3cc4c(cc3N21)N(C1(C)CNC1)CC4 (stereo not drawn) [Example 158, 1-Methyl-10-(3-methyl-azetidin-3-yl)-3,5,9,10-tetrahydro-8H-6-oxa-3,4,10,11b-tetraaza-cyclopenta[b]phenanthren-2-one 2,2,2-trifluoroacetate]
1 to 10 | < 0.25 | < 0.25 | Cc1ccccc1-c1cc2c(cc1NC1CNC1)N1C(=NNC(=O)C1C)CO2 (racemic) [Example 48]
1 to 10 | < 0.25 | 0.25 to 1 | CC(C)N1CC(C)(Nc2cc3c(cc2C2CCOCC2)OCC2=NNC(=O)C(C)N23)C1 (stereo not drawn) [Example 126, 9-((1-Isopropyl-3-methylazetidin-3-yl)amino)-1-methyl-8-(tetrahydro-2H-pyran-4-yl)-3,5-dihydrobenzo[5,6][1,4]oxazino[3,4-c][1,2,4]triazin-2(1H)-one trifluoroacetic acid]
1 to 10 | < 0.25 | < 0.25 | Cc1cccc(-c2cc3c(cc2NC2CNC2)N2C(=NNC(=O)C2C)CO3)c1 (racemic) [Example 22]
1 to 10 | < 0.25 | < 0.25 | CC(C)c1cc2c(cc1OC1CNC1)N1C(=NNC(=O)[C@H]1C)CO2 (single isomer, unassigned) [Example 96, trifluoroacetic acid]
1 to 10 | < 0.25 | < 0.25 | CC1C(=O)NN=C2COc3cc(-c4cccc(F)c4)c(NC4CNC4)cc3N21 (racemic) [Example 46]
1 to 10 | 0.25 to 1 | < 0.25 | CC1C(=O)NN=C2COc3cc(-c4ccc(OC(F)(F)F)cc4)c(NC4CNC4)cc3N21 (racemic) [Example 21]
1 to 10 | < 0.25 | < 0.25 | CC(C)c1cc2c(cc1C1CCN(C)CC1)N1C(=NNC(=O)[C@H]1C)CO2 [Example 219]
1 to 10 | < 0.25 | 0.25 to 1 | Cc1ccc(F)c(-c2cc3c(cc2NC2CNC2)N2C(=NNC(=O)C2C)CO3)c1 (racemic) [Example 31]
1 to 10 | < 0.25 | 0.25 to 1 | CC(C)c1cc2c(cc1OC1(C)CNC1)N1C(=NNC(=O)[C@@H]1C)CO2 (single isomer, unassigned) [Example 121-1, trifluoroacetic acid]
1 to 10 | < 0.25 | 0.25 to 1 | Cc1cc2c(cc1C1CCNCC1)N1C(=NNC(=O)C1C)CO2 (stereo not drawn) [Example 75, 4,7-Dimethyl-6-piperidin-4-yl-2,10-dihydro-9-oxa-1,2,4a-triaza-phenanthren-3-one trifluoroacetic acid]
